This note sets out measurements from patent US20230117034A1, “PYRAZOLOTRIAZINES” (Bayer Aktiengesellschaft, priority 2019, published 2023).

Assay [1] concerns the target T1, CYCLIN K (nuclear staining in CAL-120 cells) (Homo sapiens, UniProt O75909).
T1 construct: endogenous in cells; host or cells: CAL-120 human breast cancer cells (DSMZ ACC 459)
The experiment in a line: CYCLIN K nuclear protein level: immunofluorescence high content analysis (CAL-120). The class given is cell-based. Particulars: 24 h, 50% reduction of nuclear CCNK staining intensity, median, read-out: CYCLIN K degradation IF, DC50-[mol/l] (median). Summed up:
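CAL-120 breast cancer cells treated in dose-response for 24 h at 37 °C, PFA-fixed and immunostained for cyclin K with Hoechst counterstain. Confocal imaging quantified nuclear intensity; DC50 is the concentration giving 50% reduction of nuclear CCNK staining, normalized to DMSO and control.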

Assay [2] addresses T2, CDK9/CycT1 (Homo sapiens, UniProt P50750).
T2 construct: Recombinant full-length His-tagged human CDK9 and CycT1; purchased Life Technologies PV4131; host or cells: insect cells
The experiment in a line: CDK9/CycT1 high ATP kinase assay (TR-FRET, 2 mM ATP). Particulars: 2 mM ATP (high ATP); median; read-out: CDK9/CyclinT1, 2 mM ATP (high ATP), IC50 (median). The format is biochemical. Put shortly: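 Full-length His-tagged human CDK9/CycT1 (insect cell, ~0.5 μg/mL) preincubated 15 min at 22 °C with compound in Tris pH 8.0, MgCl2, DTT buffer before reaction with biotinylated peptide substrate at high ATP (2 mM).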
For orientation: TR-FRET usually uses a lanthanide donor and a delayed reading to cut background.

T2 sequence (P50750 whole entry): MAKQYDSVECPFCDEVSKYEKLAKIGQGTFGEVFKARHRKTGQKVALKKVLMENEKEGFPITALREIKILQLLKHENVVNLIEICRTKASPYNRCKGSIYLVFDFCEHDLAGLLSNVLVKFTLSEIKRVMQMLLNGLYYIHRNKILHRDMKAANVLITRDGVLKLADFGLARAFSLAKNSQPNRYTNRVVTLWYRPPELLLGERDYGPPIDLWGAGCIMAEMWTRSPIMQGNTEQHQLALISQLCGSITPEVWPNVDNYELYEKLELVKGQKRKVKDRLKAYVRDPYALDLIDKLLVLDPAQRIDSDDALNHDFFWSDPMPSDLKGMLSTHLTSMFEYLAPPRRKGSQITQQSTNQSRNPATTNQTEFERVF
T2 sequence (O60563 whole entry partner): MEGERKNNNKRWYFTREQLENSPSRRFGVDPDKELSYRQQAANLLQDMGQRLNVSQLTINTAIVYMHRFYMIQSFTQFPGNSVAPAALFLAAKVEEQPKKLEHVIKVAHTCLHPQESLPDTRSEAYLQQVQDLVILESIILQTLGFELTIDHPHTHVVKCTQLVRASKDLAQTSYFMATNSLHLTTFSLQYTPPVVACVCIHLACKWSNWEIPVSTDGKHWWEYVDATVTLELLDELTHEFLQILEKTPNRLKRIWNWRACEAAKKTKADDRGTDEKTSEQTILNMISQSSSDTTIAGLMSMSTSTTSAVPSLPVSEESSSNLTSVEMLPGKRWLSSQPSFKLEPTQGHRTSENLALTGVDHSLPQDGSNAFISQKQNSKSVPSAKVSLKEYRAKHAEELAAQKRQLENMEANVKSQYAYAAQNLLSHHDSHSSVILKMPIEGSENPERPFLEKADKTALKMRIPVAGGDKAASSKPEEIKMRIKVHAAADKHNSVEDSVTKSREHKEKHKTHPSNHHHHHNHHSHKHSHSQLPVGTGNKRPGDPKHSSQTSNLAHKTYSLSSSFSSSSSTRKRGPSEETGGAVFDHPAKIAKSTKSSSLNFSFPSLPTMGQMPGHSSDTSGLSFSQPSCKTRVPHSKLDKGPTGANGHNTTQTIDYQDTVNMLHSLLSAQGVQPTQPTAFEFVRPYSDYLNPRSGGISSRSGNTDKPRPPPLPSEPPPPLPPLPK
T1 sequence (O75909 whole entry): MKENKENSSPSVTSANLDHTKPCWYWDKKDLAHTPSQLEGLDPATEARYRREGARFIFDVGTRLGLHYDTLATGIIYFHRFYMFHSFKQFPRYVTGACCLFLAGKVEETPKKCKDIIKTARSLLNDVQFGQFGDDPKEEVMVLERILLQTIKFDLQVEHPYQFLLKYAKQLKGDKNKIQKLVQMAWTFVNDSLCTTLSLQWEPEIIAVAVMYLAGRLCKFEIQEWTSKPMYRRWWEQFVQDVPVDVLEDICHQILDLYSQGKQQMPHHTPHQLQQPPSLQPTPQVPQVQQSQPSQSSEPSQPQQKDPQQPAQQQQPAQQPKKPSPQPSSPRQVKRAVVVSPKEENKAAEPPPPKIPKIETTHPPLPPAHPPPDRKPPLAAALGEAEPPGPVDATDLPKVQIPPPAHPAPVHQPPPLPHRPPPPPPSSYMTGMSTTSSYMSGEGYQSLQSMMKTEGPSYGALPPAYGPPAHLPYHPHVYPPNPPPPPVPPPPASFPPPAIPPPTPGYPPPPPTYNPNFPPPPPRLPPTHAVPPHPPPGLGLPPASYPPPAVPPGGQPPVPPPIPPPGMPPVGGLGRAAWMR
T1 sequence (Q9NYV4 whole entry partner): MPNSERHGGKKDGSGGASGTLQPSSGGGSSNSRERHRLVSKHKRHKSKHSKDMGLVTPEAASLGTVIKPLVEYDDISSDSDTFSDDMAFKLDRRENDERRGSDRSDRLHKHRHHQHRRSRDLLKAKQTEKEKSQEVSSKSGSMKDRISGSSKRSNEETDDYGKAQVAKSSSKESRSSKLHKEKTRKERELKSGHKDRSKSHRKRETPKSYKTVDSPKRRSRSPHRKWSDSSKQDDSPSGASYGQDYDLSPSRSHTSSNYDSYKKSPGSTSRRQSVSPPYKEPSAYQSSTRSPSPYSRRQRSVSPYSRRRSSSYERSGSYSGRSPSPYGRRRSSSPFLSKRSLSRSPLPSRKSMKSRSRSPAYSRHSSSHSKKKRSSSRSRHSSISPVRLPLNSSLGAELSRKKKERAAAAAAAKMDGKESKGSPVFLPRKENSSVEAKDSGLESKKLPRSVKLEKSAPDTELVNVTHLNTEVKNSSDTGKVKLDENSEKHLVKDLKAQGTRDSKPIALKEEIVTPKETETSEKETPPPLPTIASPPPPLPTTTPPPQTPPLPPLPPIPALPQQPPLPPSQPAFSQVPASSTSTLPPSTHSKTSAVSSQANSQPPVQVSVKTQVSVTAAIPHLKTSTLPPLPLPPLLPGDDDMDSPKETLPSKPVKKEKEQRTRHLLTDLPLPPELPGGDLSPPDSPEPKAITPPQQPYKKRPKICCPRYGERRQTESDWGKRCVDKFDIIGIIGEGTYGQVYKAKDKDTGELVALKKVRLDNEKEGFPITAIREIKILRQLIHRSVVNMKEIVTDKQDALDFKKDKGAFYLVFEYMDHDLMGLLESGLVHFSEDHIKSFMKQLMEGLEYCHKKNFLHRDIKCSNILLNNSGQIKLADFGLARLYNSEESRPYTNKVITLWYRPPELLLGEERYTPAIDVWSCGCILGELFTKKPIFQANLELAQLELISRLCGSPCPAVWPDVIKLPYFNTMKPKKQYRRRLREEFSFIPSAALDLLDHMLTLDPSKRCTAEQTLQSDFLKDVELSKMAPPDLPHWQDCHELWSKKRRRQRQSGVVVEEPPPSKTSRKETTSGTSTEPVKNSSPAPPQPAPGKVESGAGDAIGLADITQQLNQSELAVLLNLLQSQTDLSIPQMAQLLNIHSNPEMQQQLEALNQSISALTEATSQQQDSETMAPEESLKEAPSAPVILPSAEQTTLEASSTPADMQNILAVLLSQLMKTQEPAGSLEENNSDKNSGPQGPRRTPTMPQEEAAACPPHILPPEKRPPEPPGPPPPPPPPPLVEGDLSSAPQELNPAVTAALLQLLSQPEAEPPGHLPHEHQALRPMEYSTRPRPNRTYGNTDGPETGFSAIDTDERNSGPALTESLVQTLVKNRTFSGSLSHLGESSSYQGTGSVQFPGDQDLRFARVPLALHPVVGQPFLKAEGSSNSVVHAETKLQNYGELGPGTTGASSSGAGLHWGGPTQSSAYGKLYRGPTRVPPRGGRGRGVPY

As to `FC(F)(F)c1cnn2c(NCc3nc4cc(Cl)ccc4[nH]3)nc(N3CCOCC3)nc12` [Example 275, N-[(5-chloro-1H-benzimidazol-2-yl)methyl]-2-(morpholin-4-yl)-8-(trifluoromethyl)pyrazolo[1,5-a][1,3,5]triazin-4-amine], the DC50 in assay [1] came to 0.303 nM. The IC50 in assay [2] is above 20000 nM.

For the compound `CN1CCN(c2nc(NCc3nc4ccccc4[nH]3)n3ncc(C(F)(F)F)c3n2)CC1` [Example 297, N-[(1H-benzimidazol-2-yl)methyl]-2-(4-methylpiperazin-1-yl)-8-(trifluoromethyl)pyrazolo[1,5-a][1,3,5]triazin-4-amine], the DC50 in assay [1] came to 0.679 nM. In addition, the IC50 in assay [2] is above 20000 nM.

Consider `Fc1ccc2[nH]c(CNc3nc(N4C[C@H]5CC[C@@H](C4)N5)nc4c(C5CC5)cnn34)nc2c1F` [Example 294, 8-cyclopropyl-2-[(1R,5S)-3,8-diazabicyclo[3.2.1]octan-3-yl]-N-[(4,5-difluoro-1H-benzimidazol-2-yl)methyl]pyrazolo[1,5-a][1,3,5]triazin-4-amine], for which the DC50 in assay [1] amounted to 0.56 nM. For the same compound, the IC50 in assay [2] came out at 15300 nM.

For the compound `c1ccc2[nH]c(CNc3nc(N4CCNCC4)nc4c(C5CC5)cnn34)nc2c1` [Example 247, N-[(1H-benzimidazol-2-yl)methyl]-8-cyclopropyl-2-(piperazin-1-yl)pyrazolo[1,5-a][1,3,5]triazin-4-amine], in assay [1], the DC50 came out at 0.933 nM. Further, the IC50 in assay [2] is above 20000 nM.

As for `Fc1cc2nc(CNc3nc(N4CCOCC4)nc4c(C5CC5)cnn34)[nH]c2cc1Cl` [Example 307, N-[(6-chloro-5-fluoro-1H-benzimidazol-2-yl)methyl]-8-cyclopropyl-2-(morpholin-4-yl)pyrazolo[1,5-a][1,3,5]triazin-4-amine], the DC50 in assay [1] is 0.863 nM. For the same compound, in assay [2], the IC50 was above 20000 nM.

As to `c1ccc2[nH]c(CNc3nc(N4CCOCC4)nc4c(C5CCC5)cnn34)nc2c1` [Example 263, N-[(1H-benzimidazol-2-yl)methyl]-8-cyclobutyl-2-(morpholin-4-yl)pyrazolo[1,5-a][1,3,5]triazin-4-amine], the DC50 in assay [1] is 1.82 nM. For the same compound, in assay [2], the IC50 was above 20000 nM.

Regarding `Fc1ccc2[nH]c(CNc3nc(N4CCOCC4)nc4c(CC(F)(F)F)cnn34)nc2c1` [Example 308, N-[(5-fluoro-1H-benzimidazol-2-yl)methyl]-2-(morpholin-4-yl)-8-(2,2,2-trifluoroethyl)pyrazolo[1,5-a][1,3,5]triazin-4-amine], in assay [1], the DC50 was determined as 1.02 nM. Further, the IC50 in assay [2] was above 20000 nM.

Turning to `Clc1cc2nc(CNc3nc(N4CCOCC4)nc4c(C5CC5)cnn34)[nH]c2cc1Cl` [Example 301, 8-cyclopropyl-N-[(5,6-dichloro-1H-benzimidazol-2-yl)methyl]-2-(morpholin-4-yl)pyrazolo[1,5-a][1,3,5]triazin-4-amine], in assay [1], the DC50 amounted to 0.59 nM. For the same compound, the IC50 in assay [2] was above 20000 nM.

As to `Brc1cnn2c(NCc3nnc(-c4ccccc4)[nH]3)nc(N3CCOCC3)nc12` [Example 24, 8-bromo-2-(morpholin-4-yl)-N-[(5-phenyl-4H-1,2,4-triazol-3-yl)methyl]pyrazolo[1,5-a][1,3,5]triazin-4-amine], in assay [1], the DC50 stood at 1.67 nM. Moreover, in assay [2], the IC50 is 3060 nM.

On to `Fc1ccc2[nH]c(CNc3nc(N4CCOCC4)nc4c(C(F)(F)F)cnn34)nc2c1` [Example 273, N-[(5-fluoro-1H-benzimidazol-2-yl)methyl]-2-(morpholin-4-yl)-8-(trifluoromethyl)pyrazolo[1,5-a][1,3,5]triazin-4-amine], for which the DC50 in assay [1] was found to be 0.66 nM. Also, the IC50 in assay [2] was above 20000 nM.

On to `CN[C@H]1CCN(c2nc(NCc3nc4ccccc4[nH]3)n3ncc(Br)c3n2)C1` [Example 252, N-[(1H-benzimidazol-2-yl)methyl]-8-bromo-2-[(3S)-3-(methylamino)pyrrolidin-1-yl]pyrazolo[1,5-a][1,3,5]triazin-4-amine], for which the DC50 in assay [1] was 2.42 nM. Moreover, the IC50 in assay [2] is above 20000 nM.
